{"source": "patent US10654918B2", "about": "“Inflammatory disease diagnosis and methods of treatment using down-regulators of lipopolysaccharide-responsive beige-like anchor” (University of South Florida, priority 2013, dated 2020)", "key": {"[1]": {"tested_on": "CVID receptors, B220 and TLR4", "experiment": "LPS regulates CVID receptors, B220 and TLR4 in vivo (cytometry of spleen and bone marrow cells)", "parameters": "species or system C57BL/6J mice", "settings": "for B220 Median Intensity fold / B220 Percentage fold / BAFFR Median Intensity fold / BAFFR Percentage fold / CD19 Median Intensity fold / CD19 Percentage fold / CD21 Median Intensity fold / CD21 Percentage fold / TACI Median Intensity fold / TACI Percentage fold / TLR4 Median Intensity fold / TLR4 Percentage fold: PBS vs LPS", "description": "(§1) FIG. 34(A)-(B) are graphs showing LPS regulates BAFFR in vivo and in vitro. C57BL/6J mice of 2-month age were injected intraperitoneally with LPS (5 μg/g body weight) or PBS (control). For in vitro LPS stimulation, cells from mouse spleen or bone marrow were cultured with or without LPS (1 μg/ml) for 24 hr. Cells were stained with fluorophores-conjugated BAFFR and TACI antibodies and DAPI for dead/live discrimination and analyzed with cytometry. (A) Spleocytes without LPS-P3, (B) bone marrow cells without LPS-P3. Negative gating was based on B220 negative cells, which are negative for BAFFR and TACI. Numbers other than percentage are arbitrary MFI units. All experiments were done in triplicate for in the vitro experiment and data shown is representative of two separate experiments.\n(§2) To investigate whether CVID genes also respond to LPS, mice were injected intraperitoneally with LPS. Twenty-four hours later the spleen and bone marrow cells were harvested and subjected to cytometry assay."}, "[2]": {"tested_on": "splenocytes and bone marrow cells", "experiment": "Ex vivo culture of splenocytes and bone marrow cells with LPS", "type": "cell-based, mouse", "settings": "ex vivo cell culture, 24 h LPS stimulation (1 μg/ml)", "description": "as §1, §2"}, "[3]": {"tested_on": "RAW264.7 macrophage cells", "experiment": "Time-lapse video of LRBA-associated vesicle movement after LPS", "type": "cell-based, mouse", "description": "FIGS. 14(A) and (B) are graphs showing LPS stimulates LRBA-positive vesicles movements. RAW264.7 macrophage cells stably transfected with pBWEGFP were cultured in a glass bottom dish and put into the culture chamber. LPS was added at final concentration of 100 ng/ml. The time-lapse video of four living cells was taken at one picture per second using the Leica TCS SP2 laser scanning inverted confocal microscope with a mini cell culture chamber at 37° C. and 5% CO2. (A) Average speed of LRBA-associated vesicles; (B) Average maximum speed of LRBA-associated vesicles; The two tails and unpaired T test p values: ***p<0.001; *p<0.0138 (A); ***p<0.0005; *p<0.0117 (B).\nTime lapse video was taken for living macrophage cells. RAW264.7 macrophage cells stably transfected with pBWEGFP were cultured in a glass bottom dish and put into the mini cell culture chamber at 37° C. and 5% CO2 in a Leica TCS SP2 laser scanning inverted confocal microscope. LPS was added at final concentration of 100 ng/ml. The time-lapse video of four living cells was taken at one picture per second using the Avg. timelapse interval: 1000.05 ms (1.0 Hz) (+/−8.9 ms); Initial SAC Position: 1700; Objective: 100× (magnification: 100.00×); Mag. changer: EMCCD (magnification: 1.00×); 8 inning: 1×1; Channel 1: c488em at 50 ms. Gain: 3 Intensification: 700 ND: 60 [Independent]. […]"}, "LRBA": {"tested_on": "LRBA", "experiment": "Plasma LRBA levels (ELISA) in mice stimulated with LPS", "type": "in vivo", "description": "(A) Mice stimulated with LPS (1 μg/g body weight) for 6 hours. (B) OVA induced asthma mouse model.\n(§3) (C) Asthma patients with an exacerbation or controlled symptoms; (D) Human mononuclear leukocytes stimulated with LPS (1 μg/ml). LPS was derived from Escherichia coli 0111:B4 (Sigma, St. Louis, Mo.). LRBA levels were determined by LRBA ELISA Kit using 100 μl of plasma or conditioned media in each well, following the manufacturer's protocol.\n(§4) A) Mice stimulated with LPS (5 μg/g body weight) for 6 hours. (B) OVA induced asthma mouse model; (C) Asthma patients with an exacerbation or controlled symptoms; (D) Human mononuclear leukocytes stimulated with LPS (1 μg/ml). LRBA levels were determined by LRBA ELISA Kit using 100 μl of plasma or conditioned media in each well. C57BL/6J mice were injected intraperitoneally with 500 μl of 12 mg/kg (body weight) of LRBA antibody or control normal rabbit 1 gG suspended in saline three times. LPS at 7.5 mg/kg in 0.2 ml PBS i.p was followed. About 100 μl of blood was collected by submandibular venipuncture after 2 hours of LPS injection. Plasma samples were obtained by centrifugation at 3000 rpm for 15 min and used for cytokine assay. The TNFα and IL-6 concentrations were detected using the mouse CBA Th1/Th2/Th17 cytokine kit. The Phosflow Starter Kit contains Cytofix Fixation Buffer, Phosflow Perm Buffer III and Stain Buffer BSA."}, "[4]": {"tested_on": "Human mononuclear leukocytes", "experiment": "LRBA levels in culture supernatants of mononuclear leukocytes stimulated with LPS", "type": "cell-based", "settings": "LPS 1 μg/ml", "description": "as §3, §4"}, "[5]": {"settings": "Bone Marrow, LPS 5 μg/g i.p., 24 h"}}}
{"substance": "Lipopolysaccharide [LPS]", "values": [{"measurement": "B220 Median Intensity", "setting": "[1]; [5]", "result": "2423 ± 396.6 arbitrary fluorescence intensity units"}, {"measurement": "B220 Percentage", "setting": "[1]; [5]", "result": "15.5 ± 5.1", "unit": "%"}, {"measurement": "BAFFR Median Intensity", "setting": "[1]; [5]", "result": "693.3 ± 84.1 arbitrary fluorescence intensity units"}, {"measurement": "BAFFR Percentage", "setting": "[1]; [5]", "result": "43.7 ± 4.9", "unit": "%"}, {"measurement": "CD19 Median Intensity", "setting": "[1]; [5]", "result": "1951105 arbitrary fluorescence intensity units"}, {"measurement": "CD19 Percentage", "setting": "[1]; [5]", "result": "17.9 ± 5.5", "unit": "%"}, {"measurement": "CD21 Median Intensity", "setting": "[1]; [5]", "result": "378 ± 53.8 arbitrary fluorescence intensity units"}, {"measurement": "CD21 Percentage", "setting": "[1]; [5]", "result": "24.5 ± 1.23", "unit": "%"}, {"measurement": "TACI Percentage", "setting": "[1]; [5]", "result": "1.4 ± 0.35", "unit": "%"}, {"measurement": "TLR4 Median Intensity", "setting": "[1]; [5]", "result": "592 ± 28.8 arbitrary fluorescence intensity units"}, {"measurement": "TLR4 Percentage", "setting": "[1]; [5]", "result": "50.9 ± 3.3", "unit": "%"}, {"measurement": "B220 Median Intensity fold", "setting": "[1]; Bone Marrow", "result": "0.69↑"}, {"measurement": "B220 Percentage fold", "setting": "[1]; Bone Marrow", "result": 1.02}, {"measurement": "BAFFR Median Intensity fold", "setting": "[1]; Bone Marrow", "result": "1.58↓"}, {"measurement": "BAFFR Percentage fold", "setting": "[1]; Bone Marrow", "result": 0.81}, {"measurement": "CD19 Median Intensity fold", "setting": "[1]; Bone Marrow", "result": 0.94}, {"measurement": "CD19 Percentage fold", "setting": "[1]; Bone Marrow", "result": 0.83}, {"measurement": "CD21 Median Intensity fold", "setting": "[1]; Bone Marrow", "result": "2.02↓"}, {"measurement": "CD21 Percentage fold", "setting": "[1]; Bone Marrow", "result": 1.1}, {"measurement": "TACI Median Intensity fold", "setting": "[1]; Bone Marrow", "result": 1.03}, {"measurement": "TACI Percentage fold", "setting": "[1]; Bone Marrow", "result": 2.16}, {"measurement": "TLR4 Median Intensity fold", "setting": "[1]; Bone Marrow", "result": 0.97}, {"measurement": "TLR4 Percentage fold", "setting": "[1]; Bone Marrow", "result": "1.13↓"}, {"measurement": "B220 Median Intensity", "setting": "[1]; Spleen, LPS 5 μg/g i.p., 24 h", "result": "4031.3 ± 153.2 arbitrary fluorescence intensity units"}, {"measurement": "B220 Percentage", "setting": "[1]; Spleen, LPS 5 μg/g i.p., 24 h", "result": "58.7 ± 4.5", "unit": "%"}, {"measurement": "BAFFR Median Intensity", "setting": "[1]; Spleen, LPS 5 μg/g i.p., 24 h", "result": "842.7 ± 73.1 arbitrary fluorescence intensity units"}, {"measurement": "BAFFR Percentage", "setting": "[1]; Spleen, LPS 5 μg/g i.p., 24 h", "result": "94.7 ± 0.92", "unit": "%"}, {"measurement": "CD19 Median Intensity", "setting": "[1]; Spleen, LPS 5 μg/g i.p., 24 h", "result": "1792237 arbitrary fluorescence intensity units"}, {"measurement": "CD19 Percentage", "setting": "[1]; Spleen, LPS 5 μg/g i.p., 24 h", "result": "59 ± 4.1", "unit": "%"}, {"measurement": "CD21 Median Intensity", "setting": "[1]; Spleen, LPS 5 μg/g i.p., 24 h", "result": "580.71 ± 56.5 arbitrary fluorescence intensity units"}, {"measurement": "CD21 Percentage", "setting": "[1]; Spleen, LPS 5 μg/g i.p., 24 h", "result": "80.9 ± 9.7", "unit": "%"}, {"measurement": "TACI Median Intensity", "setting": "[1]; Spleen, LPS 5 μg/g i.p., 24 h", "result": "560.7 ± 60.1 arbitrary fluorescence intensity units"}, {"measurement": "TACI Percentage", "setting": "[1]; Spleen, LPS 5 μg/g i.p., 24 h", "result": "7.9 ± 2.70", "unit": "%"}, {"measurement": "TLR4 Median Intensity", "setting": "[1]; Spleen, LPS 5 μg/g i.p., 24 h", "result": "502.7 ± 3.1 arbitrary fluorescence intensity units"}, {"measurement": "TLR4 Percentage", "setting": "[1]; Spleen, LPS 5 μg/g i.p., 24 h", "result": "55.7 ± 4.0", "unit": "%"}, {"measurement": "B220 Median Intensity fold", "setting": "[1]; Spleen", "result": 1}, {"measurement": "B220 Percentage fold", "setting": "[1]; Spleen", "result": "0.8↑"}, {"measurement": "BAFFR Median Intensity fold", "setting": "[1]; Spleen", "result": "1.19↓"}, {"measurement": "BAFFR Percentage fold", "setting": "[1]; Spleen", "result": 0.98}, {"measurement": "CD19 Median Intensity fold", "setting": "[1]; Spleen", "result": 1.07}, {"measurement": "CD19 Percentage fold", "setting": "[1]; Spleen", "result": "0.8↑"}, {"measurement": "CD21 Median Intensity fold", "setting": "[1]; Spleen", "result": "1.45↓"}, {"measurement": "CD21 Percentage fold", "setting": "[1]; Spleen", "result": 1.1}, {"measurement": "TACI Median Intensity fold", "setting": "[1]; Spleen", "result": 1.1}, {"measurement": "TACI Percentage fold", "setting": "[1]; Spleen", "result": "0.35↑"}, {"measurement": "TLR4 Median Intensity fold", "setting": "[1]; Spleen", "result": 1.02}, {"measurement": "TLR4 Percentage fold", "setting": "[1]; Spleen", "result": "1.16↓"}, {"measurement": "TACI on splenocytes and bone marrow cells", "setting": "[2]", "result": "significantly upregulated"}, {"measurement": "average speed of vesicles", "setting": "[3]; 3 min after adding LPS (100 ng/ml) into the media", "result": "doubles"}, {"measurement": "average speed of vesicles", "setting": "[3]; after 5 and 23 min of LPS (100 ng/ml)", "result": "slows down to original levels"}, {"measurement": "LRBA secreted into plasma upon LPS stimulation", "setting": "LRBA; high levels, upper value", "result": "up to 6.7 μg/L"}, {"measurement": "LRBA levels in plasma", "setting": "LRBA; mice stimulated with LPS for 6 hours", "result": "significantly increased"}, {"measurement": "LRBA levels in the culture supernatants", "setting": "[4]", "result": "significantly increased"}]}
